How the values were obtained:
Test in all cases: combination Emax (second highest fraction inhibited in the dose matrix, 72 h); higher = more inhibition; extreme values may be limits of the assay
[1] = system: SK-LMS-1 (Other Solid Carcinomas)
Outline: (§1)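 Cell lines grown in DMEM/F12 or RPMI with 10% FBS were plated in 1536-well plates and held 24 hours at 37°C, 5% CO2 before 72 hours of exposure to two-drug dose matrices, with DMSO typically at 0.2%. CellTiter-Glo 2.0 luminescence gave viability, which was converted to inhibition. Vehicle wells were set to 0 and blank wells to 1. Combination Emax is the second-highest inhibition in the matrix, and Bliss excess is the observed combination effect minus the expected EA + EB − EA·EB, where EA and EB are the single-agent effects.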

[2] = system: SK-UT-1 (Other Solid Carcinomas)
Outline: as §1

[3] = system: SW48 (Colorectal Carcinoma)
Outline: as §1

[4] = system: D-392MG (Glioblastoma)
Outline: as §1

[5] = system: MSTO-211H (Mesothelioma)
Outline: as §1

[6] = system: SNG-M (Endometrial Carcinoma)
Outline: as §1

[7] = system: EW-22 (Ewing's Sarcoma)
Outline: as §1

[8] = system: CS1 (Chondrosarcoma)
Outline: as §1

[9] = system: YT (Other Blood Carcinomas)
Outline: as §1

[10] = system: MEG-01 (Chronic Myelogenous Leukemia)
Outline: as §1

[11] = system: BICR78 (Oral Cavity Carcinoma)
Outline: as §1

[12] = system: WSU-DLCL2 (B-Cell Non-Hodgkin's Lymphoma)
Outline: as §1

[13] = system: P31-FUJ (Acute Myeloid Leukemia)
Outline: as §1

[14] = system: HLE (Hepatocellular Carcinoma)
Outline: as §1

[15] = system: FU-OV-1 (Ovarian Carcinoma)
Outline: as §1

[16] = system: SLVL (B-Cell Non-Hodgkin's Lymphoma)
Outline: as §1

[17] = system: HCT-116 (Colorectal Carcinoma)
Outline: as §1

[18] = system: D-283MED (Other Solid Carcinomas)
Outline: as §1

[19] = system: Saos-2 (Osteosarcoma)
Outline: as §1

[20] = system: SK-MEL-1 (Melanoma)
Outline: as §1

| Compound | combination Emax [1] | combination Emax [2] | combination Emax [3] | combination Emax [4] | combination Emax [5] | combination Emax [6] | combination Emax [7] | combination Emax [8] | combination Emax [9] | combination Emax [10] | combination Emax [11] | combination Emax [12] | combination Emax [13] | combination Emax [14] | combination Emax [15] | combination Emax [16] | combination Emax [17] | combination Emax [18] | combination Emax [19] | combination Emax [20] |
| --- | --- | --- | --- | --- | --- | --- | --- | --- | --- | --- | --- | --- | --- | --- | --- | --- | --- | --- | --- | --- |
| C=CCn1c(=O)c2cnc(Nc3ccc(N4CCN(C)CC4)cc3)nc2n1-c1cccc(C(C)(C)O)n1 [AZD1775] + CCc1c2c(nc3ccc(O)cc13)-c1cc3c(c(=O)n1C2)COC(=O)[C@]3(O)CC [SN-38] (first compound max 1 µM, partner max 0.3 µM) | 0.898 | 0.982 | 0.857 | 0.569 | 0.783 | 0.77 | 0.94 | 0.786 | 0.977 | 0.964 | 0.854 | 1 | 0.985 | 0.791 | 0.711 | 0.967 | 0.866 | 0.996 | 0.964 | 0.56 |
| C=CCn1c(=O)c2cnc(Nc3ccc(N4CCN(C)CC4)cc3)nc2n1-c1cccc(C(C)(C)O)n1 [AZD1775] + Nc1ccn([C@@H]2O[C@H](CO)[C@@H](O)C2(F)F)c(=O)n1 [Gemcitabine] (first compound max 1 µM, partner max 0.3 µM) | 0.804 | 0.916 | 0.887 | 0.597 | 0.815 | 0.751 | 0.921 | 0.661 | 0.997 | 0.918 | 0.718 | 1 | 1 | 0.709 | 0.633 | 0.954 | 0.88 | 0.995 | 0.843 | 0.422 |
| CN(CCO)CC[C@H](CSc1ccccc1)Nc1ccc(S(=O)(=O)NC(=O)c2ccc(N3CCC([C@@H](O)c4ccccc4-c4ccc(Cl)cc4)CC3)cc2)cc1S(=O)(=O)C(F)(F)F [AZD4320] + CC(=O)O[C@H]1C(=O)[C@@]2(C)[C@H]([C@H](OC(=O)c3ccccc3)[C@]3(O)C[C@H](OC(=O)[C@H](O)[C@@H](NC(=O)c4ccccc4)c4ccccc4)C(C)=C1C3(C)C)[C@]1(OC(C)=O)CO[C@@H]1C[C@@H]2O [Paclitaxel] (first compound max 1 µM, 7x7, partner max 3 µM) | 1 | 0.977 | 1 | 1 | 0.881 | 1 | 0.999 | 0.961 | 1 | 0.991 | 0.941 | 1 | 1 | 0.93 | 0.716 | 1 | 1 | 1 | 0.968 | 0.623 |
| CN(CCO)CC[C@H](CSc1ccccc1)Nc1ccc(S(=O)(=O)NC(=O)c2ccc(N3CCC([C@@H](O)c4ccccc4-c4ccc(Cl)cc4)CC3)cc2)cc1S(=O)(=O)C(F)(F)F [AZD4320] + CS(=O)(=O)CCNCc1ccc(-c2ccc3ncnc(Nc4ccc(OCc5cccc(F)c5)c(Cl)c4)c3c2)o1 [Lapatinib] (first compound max 1 µM, 7x7, partner max 10 µM) | 0.817 | 0.906 | 0.969 | 0.492 | 0.952 | 0.92 | 0.971 | 0.937 | 0.451 | 0.986 | 0.456 | 0.967 | 0.959 | 0.945 | 0.59 | 0.98 | 0.796 | 0.988 | 0.746 | 0.808 |
| CN(CCO)CC[C@H](CSc1ccccc1)Nc1ccc(S(=O)(=O)NC(=O)c2ccc(N3CCC([C@@H](O)c4ccccc4-c4ccc(Cl)cc4)CC3)cc2)cc1S(=O)(=O)C(F)(F)F [AZD4320] + Nc1ccn([C@@H]2O[C@H](CO)[C@@H](O)C2(F)F)c(=O)n1 [Gemcitabine] (first compound max 1 µM, 7x7, partner max 0.3 µM) | 0.984 | 0.978 | 0.972 | 0.96 | 0.96 | 0.913 | 0.999 | 0.789 | 0.862 | 0.93 | 0.63 | 1 | 0.959 | 0.887 | 0.245 | 1 | 0.899 | 1 | 0.984 | 0.649 |
| Cc1c2c(nn1C)CSCc1cc(n(C)n1)CSc1cc(c3ccccc3c1)OCCCc1c(C(=O)O)n(C)c3c-2c(Cl)ccc13 [AZD5991] + CC(=O)O[C@H]1C(=O)[C@@]2(C)[C@H]([C@H](OC(=O)c3ccccc3)[C@]3(O)C[C@H](OC(=O)[C@H](O)[C@@H](NC(=O)c4ccccc4)c4ccccc4)C(C)=C1C3(C)C)[C@]1(OC(C)=O)CO[C@@H]1C[C@@H]2O [Paclitaxel] (first compound max 1 µM, 7x7, partner max 3 µM) | 0.919 | 0.884 | 0.994 | 0.734 | 0.391 | 1 | 0.871 | 0.652 | 1 | 0.881 | 0.701 | 1 | 1 | 0.825 | 0.474 | 0.954 | 0.981 | 1 | 0.961 | 0.21 |
| Cc1c2c(nn1C)CSCc1cc(n(C)n1)CSc1cc(c3ccccc3c1)OCCCc1c(C(=O)O)n(C)c3c-2c(Cl)ccc13 [AZD5991] + CS(=O)(=O)CCNCc1ccc(-c2ccc3ncnc(Nc4ccc(OCc5cccc(F)c5)c(Cl)c4)c3c2)o1 [Lapatinib] (first compound max 1 µM, 7x7, partner max 10 µM) | 0.265 | 0.485 | 0.649 | 0.104 | 0.193 | 0.177 | 0.41 | 0.506 | 1 | 0.557 | 0.445 | 1 | 0.985 | 0.23 | 0.42 | 0.341 | 0.382 | 0.986 | 0.497 | 0.37 |
| Cc1c2c(nn1C)CSCc1cc(n(C)n1)CSc1cc(c3ccccc3c1)OCCCc1c(C(=O)O)n(C)c3c-2c(Cl)ccc13 [AZD5991] + Nc1ccn([C@@H]2O[C@H](CO)[C@@H](O)C2(F)F)c(=O)n1 [Gemcitabine] (first compound max 1 µM, 7x7, partner max 0.3 µM) | 0.83 | 0.904 | 0.822 | 0.642 | 0.861 | 0.882 | 0.933 | 0.445 | 1 | 0.745 | 0.642 | 1 | 0.992 | 0.713 | 0.196 | 0.968 | 0.828 | 0.986 |  | 0.441 |
| C[C@@H]1COCCN1c1cc(C2([S@](C)(=N)=O)CC2)nc(-c2ccnc3[nH]ccc23)n1 [AZD6738] + C1CC(C1)(C(=O)[O-])C(=O)[O-].N.N.[Pt+2] [Carboplatin] (first compound max 10 µM, 7x7, partner max 10 µM) | 0.448 | 0.779 | 0.673 | 0.423 | 0.45 | 0.89 | 0.851 | 0.548 | 0.76 | 0.923 | 0.58 | 0.767 | 0.922 | 0.458 | 0.254 | 0.659 | 0.664 | 0.996 | 0.544 | 0.32 |
| C[C@@H]1COCCN1c1cc(C2([S@](C)(=N)=O)CC2)nc(-c2ccnc3[nH]ccc23)n1 [AZD6738] + Nc1ccn([C@@H]2O[C@H](CO)[C@@H](O)C2(F)F)c(=O)n1 [Gemcitabine] (first compound max 10 µM, 7x7, partner max 0.3 µM) | 0.858 | 0.979 | 0.818 | 0.625 | 0.855 | 0.934 | 0.949 | 0.734 | 1 | 0.945 | 0.79 | 1 | 1 | 0.834 | 0.67 | 0.955 | 0.947 | 1 | 0.83 | 0.528 |
| Cc1cc2ncnn2cc1Nc1ncc2c(n1)n(C1CCOCC1)c(=O)n2C [AZD7648] + COc1cc([C@@H]2c3cc4c(cc3[C@@H](O[C@@H]3O[C@@H]5CO[C@@H](C)O[C@H]5[C@H](O)[C@H]3O)[C@H]3COC(=O)[C@H]23)OCO4)cc(OC)c1O [Etoposide] (first compound max 10 µM, 7x7, partner max 10 µM) | 0.822 | 0.926 | 0.883 | 0.489 | 0.783 | 0.867 | 0.938 | 0.649 | 0.974 | 0.854 | 0.666 | 1 | 0.967 | 0.729 | 0.603 | 0.924 | 0.725 | 0.979 | 0.827 | 0.558 |
| N#Cc1cnc(Nc2cc(NC[C@H]3CNCCO3)c(C(F)(F)F)cn2)cn1 [SRA737] + O=c1[nH]cc(F)c(=O)[nH]1 [5-Fluorouracil] (first compound max 10 µM, 7x7, partner max 20 µM) | 0.268 | 0.799 | 0.592 | 0.313 | 0.536 | 0.71 | 0.736 | 0.405 | 0.993 | 0.835 | 0.55 |  | 0.98 | 0.129 | 0.158 | 0.927 | 0.737 |  | 0.457 | 0.157 |

From the supplement of paper PMC11061612
